{"source": "the kinase profiling compilation of Christmann-Franck et al. (2016)", "assay_in_all_cases": "radiometric filter-binding kinase assay", "key": {"[1]": {"test_system": "AKT2 (human), P31751 [S474D]"}, "CaMK1 (human)": {"target": "CaMK1 (human) (UniProt Q14012)"}, "DYRK3 (human)": {"target": "DYRK3 (human) (UniProt O43781)"}, "EPHB2 (human)": {"target": "EPHB2 (human) (UniProt P29323)"}, "EPHB3 (human)": {"target": "EPHB3 (human) (UniProt P54753)"}, "ERBB4 (human)": {"target": "ERBB4 (human) (UniProt Q15303)"}, "FGFR1 (human)": {"target": "FGFR1 (human) (UniProt P11362)", "sequence (P11362 whole entry, looked up)": "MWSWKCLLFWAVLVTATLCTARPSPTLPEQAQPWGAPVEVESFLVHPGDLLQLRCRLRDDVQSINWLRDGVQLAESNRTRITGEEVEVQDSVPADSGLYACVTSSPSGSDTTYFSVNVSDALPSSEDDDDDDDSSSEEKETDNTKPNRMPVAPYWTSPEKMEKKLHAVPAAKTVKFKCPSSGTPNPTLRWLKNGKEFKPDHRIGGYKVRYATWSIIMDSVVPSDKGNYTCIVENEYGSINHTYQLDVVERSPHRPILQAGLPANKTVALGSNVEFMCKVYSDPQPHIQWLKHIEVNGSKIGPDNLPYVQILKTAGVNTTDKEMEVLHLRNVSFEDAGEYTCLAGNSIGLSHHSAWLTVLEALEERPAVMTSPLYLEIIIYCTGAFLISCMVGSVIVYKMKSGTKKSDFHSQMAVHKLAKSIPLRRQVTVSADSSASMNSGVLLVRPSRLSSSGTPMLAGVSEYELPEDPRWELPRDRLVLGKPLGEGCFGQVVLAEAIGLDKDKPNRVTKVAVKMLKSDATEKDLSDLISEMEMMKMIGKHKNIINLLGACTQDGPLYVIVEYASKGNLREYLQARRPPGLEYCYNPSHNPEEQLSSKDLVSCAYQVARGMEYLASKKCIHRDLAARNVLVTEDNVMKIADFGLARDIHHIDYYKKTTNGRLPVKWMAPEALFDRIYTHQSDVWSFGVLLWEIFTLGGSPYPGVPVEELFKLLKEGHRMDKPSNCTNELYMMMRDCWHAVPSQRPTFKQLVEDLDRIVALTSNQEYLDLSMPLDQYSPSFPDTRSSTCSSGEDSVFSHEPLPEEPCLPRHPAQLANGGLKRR"}, "GCK (human)": {"target": "GCK (human) (UniProt Q12851)"}, "GSK3B (human)": {"target": "GSK3B (human) (UniProt P49841)"}, "LCK (mouse)": {"test_system": "LCK (mouse)", "conditions": "accession and sequence are those of the human protein"}, "MAP2K1 (human)": {"target": "MAP2K1 (human) (UniProt Q02750)", "sequence (Q02750 whole entry, looked up)": "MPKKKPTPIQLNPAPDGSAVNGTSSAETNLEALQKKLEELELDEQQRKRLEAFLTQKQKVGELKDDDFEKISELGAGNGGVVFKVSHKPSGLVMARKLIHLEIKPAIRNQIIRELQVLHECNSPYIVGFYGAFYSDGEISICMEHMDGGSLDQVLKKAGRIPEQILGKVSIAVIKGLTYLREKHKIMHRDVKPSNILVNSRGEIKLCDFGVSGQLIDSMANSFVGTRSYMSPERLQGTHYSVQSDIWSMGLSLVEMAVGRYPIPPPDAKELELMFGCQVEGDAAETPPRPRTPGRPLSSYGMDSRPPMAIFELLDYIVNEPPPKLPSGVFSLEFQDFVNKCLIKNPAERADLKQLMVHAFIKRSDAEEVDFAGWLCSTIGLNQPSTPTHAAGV"}, "MAP2K2 (human)": {"target": "MAP2K2 (human) (UniProt P36507)"}, "MAP2K6 (human)": {"target": "MAP2K6 (human) (UniProt P52564)", "sequence (P52564 whole entry, looked up)": "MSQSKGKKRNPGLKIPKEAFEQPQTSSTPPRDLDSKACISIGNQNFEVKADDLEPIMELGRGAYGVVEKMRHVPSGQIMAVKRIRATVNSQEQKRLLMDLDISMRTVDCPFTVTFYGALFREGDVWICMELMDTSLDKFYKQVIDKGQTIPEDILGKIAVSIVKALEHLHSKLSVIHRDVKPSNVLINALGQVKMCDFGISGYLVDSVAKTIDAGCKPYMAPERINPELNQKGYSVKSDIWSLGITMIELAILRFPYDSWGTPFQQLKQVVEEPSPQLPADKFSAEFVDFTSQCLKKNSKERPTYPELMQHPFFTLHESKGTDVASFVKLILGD"}, "MAP3K11 (human)": {"target": "MAP3K11 (human) (UniProt Q16584)"}, "MAP3K5 (human)": {"target": "MAP3K5 (human) (UniProt Q99683)"}, "MAP3K9 (human)": {"target": "MAP3K9 (human) (UniProt P80192)"}, "MAPK14 (human)": {"target": "MAPK14 (human) (UniProt Q16539)", "sequence (Q16539 whole entry, looked up)": "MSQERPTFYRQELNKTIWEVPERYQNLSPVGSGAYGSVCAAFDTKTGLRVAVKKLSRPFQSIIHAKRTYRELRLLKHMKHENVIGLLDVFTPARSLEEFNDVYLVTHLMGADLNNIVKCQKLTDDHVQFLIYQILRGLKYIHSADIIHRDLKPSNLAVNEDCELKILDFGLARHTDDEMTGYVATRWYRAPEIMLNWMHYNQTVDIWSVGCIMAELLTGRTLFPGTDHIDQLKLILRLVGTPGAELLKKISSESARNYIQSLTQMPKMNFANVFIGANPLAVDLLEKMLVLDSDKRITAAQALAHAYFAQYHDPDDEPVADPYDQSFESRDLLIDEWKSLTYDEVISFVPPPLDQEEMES"}, "MARK1 (human)": {"target": "MARK1 (human) (UniProt Q9P0L2)"}, "MARK4 (human)": {"target": "MARK4 (human) (UniProt Q96L34)"}, "MYLK (human)": {"target": "MYLK (human) (UniProt Q15746)"}, "PHKG1 (human)": {"target": "PHKG1 (human) (UniProt Q16816)", "sequence (Q16816 whole entry, looked up)": "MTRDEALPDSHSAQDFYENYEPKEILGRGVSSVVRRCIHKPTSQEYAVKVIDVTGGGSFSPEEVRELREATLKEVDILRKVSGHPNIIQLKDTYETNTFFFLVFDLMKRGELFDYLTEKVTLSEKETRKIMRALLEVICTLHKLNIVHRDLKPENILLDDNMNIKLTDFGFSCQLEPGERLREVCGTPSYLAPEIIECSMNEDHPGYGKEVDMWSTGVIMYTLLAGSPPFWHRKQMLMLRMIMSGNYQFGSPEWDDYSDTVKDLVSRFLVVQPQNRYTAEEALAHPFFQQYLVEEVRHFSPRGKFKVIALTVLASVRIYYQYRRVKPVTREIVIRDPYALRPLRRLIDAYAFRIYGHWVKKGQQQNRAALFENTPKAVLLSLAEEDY"}, "PTK6 (human)": {"target": "PTK6 (human) (UniProt Q13882)"}, "RIPK2 (human)": {"target": "RIPK2 (human) (UniProt O43353)"}, "RPS6KA1 KD1 KD2 (human)": {"target": "RPS6KA1 KD1 KD2 (human) (UniProt Q15418)", "sequence (Q15418 whole entry, looked up)": "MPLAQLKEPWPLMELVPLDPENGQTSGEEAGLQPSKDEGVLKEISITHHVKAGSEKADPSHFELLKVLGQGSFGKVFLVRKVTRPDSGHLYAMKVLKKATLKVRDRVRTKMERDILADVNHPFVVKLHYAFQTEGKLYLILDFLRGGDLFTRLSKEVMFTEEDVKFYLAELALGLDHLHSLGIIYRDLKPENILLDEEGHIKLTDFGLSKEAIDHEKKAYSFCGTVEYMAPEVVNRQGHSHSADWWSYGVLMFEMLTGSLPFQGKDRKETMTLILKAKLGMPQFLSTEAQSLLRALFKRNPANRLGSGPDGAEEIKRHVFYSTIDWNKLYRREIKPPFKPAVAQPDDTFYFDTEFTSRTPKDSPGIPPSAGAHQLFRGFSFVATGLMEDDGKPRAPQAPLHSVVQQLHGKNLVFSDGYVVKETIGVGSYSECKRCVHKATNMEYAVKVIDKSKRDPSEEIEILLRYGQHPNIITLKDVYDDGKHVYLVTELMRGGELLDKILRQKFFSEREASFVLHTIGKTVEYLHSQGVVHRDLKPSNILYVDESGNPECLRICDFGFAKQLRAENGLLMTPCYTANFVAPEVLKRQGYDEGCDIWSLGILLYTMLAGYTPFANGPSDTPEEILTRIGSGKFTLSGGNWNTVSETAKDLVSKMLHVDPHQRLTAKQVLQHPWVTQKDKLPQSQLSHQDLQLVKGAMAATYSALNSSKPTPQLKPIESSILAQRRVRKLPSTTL"}, "[2]": {"test_system": "SGK1 (human), O00141 [S422D]", "sequence (O00141 whole entry S422D, looked up)": "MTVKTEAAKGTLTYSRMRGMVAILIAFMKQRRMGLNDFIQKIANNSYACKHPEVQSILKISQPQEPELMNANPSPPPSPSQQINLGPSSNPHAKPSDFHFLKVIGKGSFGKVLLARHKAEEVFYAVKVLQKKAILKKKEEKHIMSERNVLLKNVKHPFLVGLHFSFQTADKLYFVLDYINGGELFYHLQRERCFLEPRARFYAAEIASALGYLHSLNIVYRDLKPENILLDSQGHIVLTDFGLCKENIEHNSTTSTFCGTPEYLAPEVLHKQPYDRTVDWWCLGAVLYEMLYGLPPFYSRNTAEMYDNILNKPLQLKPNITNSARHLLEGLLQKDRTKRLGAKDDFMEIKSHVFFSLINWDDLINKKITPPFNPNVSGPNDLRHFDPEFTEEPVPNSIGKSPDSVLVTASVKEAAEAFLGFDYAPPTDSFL"}, "SRPK1 (human)": {"target": "SRPK1 (human) (UniProt Q96SB4)"}, "[3]": {"target": "STK11 CAB39 STRADA (human) (UniProt Q9Y376+Q7RTN6+Q15831)", "sequence (Q15831 whole entry, looked up)": "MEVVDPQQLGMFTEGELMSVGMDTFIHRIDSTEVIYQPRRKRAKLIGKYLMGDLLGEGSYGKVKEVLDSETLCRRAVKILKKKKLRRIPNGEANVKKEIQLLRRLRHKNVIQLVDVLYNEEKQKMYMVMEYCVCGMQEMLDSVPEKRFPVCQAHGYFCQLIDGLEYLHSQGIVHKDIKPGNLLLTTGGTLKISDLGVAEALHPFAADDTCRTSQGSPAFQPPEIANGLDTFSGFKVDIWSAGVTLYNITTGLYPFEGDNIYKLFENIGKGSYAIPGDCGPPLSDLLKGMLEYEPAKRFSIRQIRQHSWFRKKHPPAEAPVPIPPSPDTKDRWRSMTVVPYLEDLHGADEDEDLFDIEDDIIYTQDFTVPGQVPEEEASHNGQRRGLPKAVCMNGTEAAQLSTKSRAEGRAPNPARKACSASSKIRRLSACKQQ", "sequence (Q7RTN6 whole entry, looked up)": "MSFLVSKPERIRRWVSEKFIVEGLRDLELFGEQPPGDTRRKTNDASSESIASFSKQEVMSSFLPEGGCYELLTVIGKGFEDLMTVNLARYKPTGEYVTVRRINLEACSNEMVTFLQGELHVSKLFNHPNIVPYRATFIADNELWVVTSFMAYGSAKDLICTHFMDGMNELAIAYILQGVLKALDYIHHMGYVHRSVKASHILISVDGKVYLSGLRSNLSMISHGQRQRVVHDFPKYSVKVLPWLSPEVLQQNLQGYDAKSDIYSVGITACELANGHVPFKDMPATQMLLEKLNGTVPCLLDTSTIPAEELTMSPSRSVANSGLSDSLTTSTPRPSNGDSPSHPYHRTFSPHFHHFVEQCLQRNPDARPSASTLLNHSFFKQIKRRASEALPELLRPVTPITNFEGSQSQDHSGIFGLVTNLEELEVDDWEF", "sequence (Q9Y376 whole entry, looked up)": "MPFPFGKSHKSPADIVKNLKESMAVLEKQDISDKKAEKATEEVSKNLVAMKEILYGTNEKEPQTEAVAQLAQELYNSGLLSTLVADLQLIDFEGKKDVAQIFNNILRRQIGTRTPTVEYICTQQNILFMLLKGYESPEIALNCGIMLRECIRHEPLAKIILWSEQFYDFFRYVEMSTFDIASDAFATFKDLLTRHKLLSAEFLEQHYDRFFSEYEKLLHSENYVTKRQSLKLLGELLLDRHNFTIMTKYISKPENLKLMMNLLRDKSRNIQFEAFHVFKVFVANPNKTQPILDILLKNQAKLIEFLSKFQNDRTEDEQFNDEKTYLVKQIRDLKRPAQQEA"}, "TEK (human)": {"target": "TEK (human) (UniProt Q02763)"}}, "data": [{"smiles": "CCN1CCN(Cc2ccc(NC(=O)c3ccc(C)c(Oc4ccnc5[nH]ccc45)c3)cc2C(F)(F)F)CC1", "values": [{"measurement": "residual activity", "setting": "[1]; compound 0.1 µM", "result": 105, "unit": "%"}, {"measurement": "residual activity", "setting": "[1]; compound 1.0 µM", "result": 114, "unit": "%"}, {"measurement": "residual activity", "setting": "[1]; compound 10.0 µM", "result": 49.3, "unit": "%"}, {"measurement": "residual activity", "setting": "CaMK1 (human); compound 0.1 µM", "result": 68.7, "unit": "%"}, {"measurement": "residual activity", "setting": "CaMK1 (human); compound 1.0 µM", "result": 17.2, "unit": "%"}, {"measurement": "residual activity", "setting": "CaMK1 (human); compound 10.0 µM", "result": 3.79, "unit": "%"}, {"measurement": "residual activity", "setting": "DYRK3 (human); compound 0.1 µM", "result": 96.5, "unit": "%"}, {"measurement": "residual activity", "setting": "DYRK3 (human); compound 1.0 µM", "result": 86.3, "unit": "%"}, {"measurement": "residual activity", "setting": "DYRK3 (human); compound 10.0 µM", "result": 82, "unit": "%"}, {"measurement": "residual activity", "setting": "EPHB2 (human); compound 0.1 µM", "result": 88.5, "unit": "%"}, {"measurement": "residual activity", "setting": "EPHB2 (human); compound 1.0 µM", "result": 23.4, "unit": "%"}, {"measurement": "residual activity", "setting": "EPHB2 (human); compound 10.0 µM", "result": 3.11, "unit": "%"}, {"measurement": "residual activity", "setting": "EPHB3 (human); compound 0.1 µM", "result": 96.6, "unit": "%"}, {"measurement": "residual activity", "setting": "EPHB3 (human); compound 1.0 µM", "result": 29.5, "unit": "%"}, {"measurement": "residual activity", "setting": "EPHB3 (human); compound 10.0 µM", "result": 7.66, "unit": "%"}, {"measurement": "residual activity", "setting": "ERBB4 (human); compound 0.1 µM", "result": 105, "unit": "%"}, {"measurement": "residual activity", "setting": "ERBB4 (human); compound 1.0 µM", "result": 76.8, "unit": "%"}, {"measurement": "residual activity", "setting": "ERBB4 (human); compound 10.0 µM", "result": 36.9, "unit": "%"}, {"measurement": "residual activity", "setting": "FGFR1 (human); compound 0.1 µM", "result": 79.1, "unit": "%"}, {"measurement": "residual activity", "setting": "FGFR1 (human); compound 1.0 µM", "result": 23.5, "unit": "%"}, {"measurement": "residual activity", "setting": "FGFR1 (human); compound 10.0 µM", "result": 8.48, "unit": "%"}, {"measurement": "residual activity", "setting": "GCK (human); compound 0.1 µM", "result": 24.1, "unit": "%"}, {"measurement": "residual activity", "setting": "GCK (human); compound 1.0 µM", "result": 12.3, "unit": "%"}, {"measurement": "residual activity", "setting": "GCK (human); compound 10.0 µM", "result": 9.08, "unit": "%"}, {"measurement": "residual activity", "setting": "GSK3B (human); compound 0.1 µM", "result": 102, "unit": "%"}, {"measurement": "residual activity", "setting": "GSK3B (human); compound 1.0 µM", "result": 104, "unit": "%"}, {"measurement": "residual activity", "setting": "GSK3B (human); compound 10.0 µM", "result": 101, "unit": "%"}, {"measurement": "residual activity", "setting": "LCK (mouse); compound 0.1 µM", "result": 12.7, "unit": "%"}, {"measurement": "residual activity", "setting": "LCK (mouse); compound 1.0 µM", "result": 0.851, "unit": "%"}, {"measurement": "residual activity", "setting": "LCK (mouse); compound 10.0 µM", "result": 5.77, "unit": "%"}, {"measurement": "residual activity", "setting": "MAP2K1 (human); compound 0.1 µM", "result": 106, "unit": "%"}, {"measurement": "residual activity", "setting": "MAP2K1 (human); compound 1.0 µM", "result": 108, "unit": "%"}, {"measurement": "residual activity", "setting": "MAP2K1 (human); compound 10.0 µM", "result": 93.2, "unit": "%"}, {"measurement": "residual activity", "setting": "MAP2K2 (human); compound 0.1 µM", "result": 131, "unit": "%"}, {"measurement": "residual activity", "setting": "MAP2K2 (human); compound 1.0 µM", "result": 116, "unit": "%"}, {"measurement": "residual activity", "setting": "MAP2K2 (human); compound 10.0 µM", "result": 96.8, "unit": "%"}, {"measurement": "residual activity", "setting": "MAP2K6 (human); compound 0.1 µM", "result": 118, "unit": "%"}, {"measurement": "residual activity", "setting": "MAP2K6 (human); compound 1.0 µM", "result": 158, "unit": "%"}, {"measurement": "residual activity", "setting": "MAP2K6 (human); compound 10.0 µM", "result": 133, "unit": "%"}, {"measurement": "residual activity", "setting": "MAP3K11 (human); compound 0.1 µM", "result": 95.1, "unit": "%"}, {"measurement": "residual activity", "setting": "MAP3K11 (human); compound 1.0 µM", "result": 50.3, "unit": "%"}, {"measurement": "residual activity", "setting": "MAP3K11 (human); compound 10.0 µM", "result": 8.66, "unit": "%"}, {"measurement": "residual activity", "setting": "MAP3K5 (human); compound 0.1 µM", "result": 111, "unit": "%"}, {"measurement": "residual activity", "setting": "MAP3K5 (human); compound 1.0 µM", "result": 105, "unit": "%"}, {"measurement": "residual activity", "setting": "MAP3K5 (human); compound 10.0 µM", "result": 76.5, "unit": "%"}, {"measurement": "residual activity", "setting": "MAP3K9 (human); compound 0.1 µM", "result": 106, "unit": "%"}, {"measurement": "residual activity", "setting": "MAP3K9 (human); compound 1.0 µM", "result": 90, "unit": "%"}, {"measurement": "residual activity", "setting": "MAP3K9 (human); compound 10.0 µM", "result": 39.6, "unit": "%"}, {"measurement": "residual activity", "setting": "MAPK14 (human); compound 0.1 µM", "result": 41, "unit": "%"}, {"measurement": "residual activity", "setting": "MAPK14 (human); compound 1.0 µM", "result": 3.48, "unit": "%"}, {"measurement": "residual activity", "setting": "MAPK14 (human); compound 10.0 µM", "result": 2.61, "unit": "%"}, {"measurement": "residual activity", "setting": "MARK1 (human); compound 0.1 µM", "result": 114, "unit": "%"}, {"measurement": "residual activity", "setting": "MARK1 (human); compound 1.0 µM", "result": 97.2, "unit": "%"}, {"measurement": "residual activity", "setting": "MARK1 (human); compound 10.0 µM", "result": 103, "unit": "%"}, {"measurement": "residual activity", "setting": "MARK4 (human); compound 0.1 µM", "result": 116, "unit": "%"}, {"measurement": "residual activity", "setting": "MARK4 (human); compound 1.0 µM", "result": 104, "unit": "%"}, {"measurement": "residual activity", "setting": "MARK4 (human); compound 10.0 µM", "result": 88.7, "unit": "%"}, {"measurement": "residual activity", "setting": "MYLK (human); compound 0.1 µM", "result": 109, "unit": "%"}, {"measurement": "residual activity", "setting": "MYLK (human); compound 1.0 µM", "result": 89.4, "unit": "%"}, {"measurement": "residual activity", "setting": "MYLK (human); compound 10.0 µM", "result": 76.7, "unit": "%"}, {"measurement": "residual activity", "setting": "PHKG1 (human); compound 0.1 µM", "result": 102, "unit": "%"}, {"measurement": "residual activity", "setting": "PHKG1 (human); compound 1.0 µM", "result": 112, "unit": "%"}, {"measurement": "residual activity", "setting": "PHKG1 (human); compound 10.0 µM", "result": 102, "unit": "%"}, {"measurement": "residual activity", "setting": "PTK6 (human); compound 0.1 µM", "result": 101, "unit": "%"}, {"measurement": "residual activity", "setting": "PTK6 (human); compound 1.0 µM", "result": 43.1, "unit": "%"}, {"measurement": "residual activity", "setting": "PTK6 (human); compound 10.0 µM", "result": 6.76, "unit": "%"}, {"measurement": "residual activity", "setting": "RIPK2 (human); compound 0.1 µM", "result": 103, "unit": "%"}, {"measurement": "residual activity", "setting": "RIPK2 (human); compound 1.0 µM", "result": 78.9, "unit": "%"}, {"measurement": "residual activity", "setting": "RIPK2 (human); compound 10.0 µM", "result": 13.5, "unit": "%"}, {"measurement": "residual activity", "setting": "RPS6KA1 KD1 KD2 (human); compound 0.1 µM", "result": 107, "unit": "%"}, {"measurement": "residual activity", "setting": "RPS6KA1 KD1 KD2 (human); compound 1.0 µM", "result": 84.3, "unit": "%"}, {"measurement": "residual activity", "setting": "RPS6KA1 KD1 KD2 (human); compound 10.0 µM", "result": 37.9, "unit": "%"}, {"measurement": "residual activity", "setting": "[2]; compound 0.1 µM", "result": 101, "unit": "%"}, {"measurement": "residual activity", "setting": "[2]; compound 1.0 µM", "result": 72.8, "unit": "%"}, {"measurement": "residual activity", "setting": "[2]; compound 10.0 µM", "result": 52.1, "unit": "%"}, {"measurement": "residual activity", "setting": "SRPK1 (human); compound 0.1 µM", "result": 102, "unit": "%"}, {"measurement": "residual activity", "setting": "SRPK1 (human); compound 1.0 µM", "result": 97.1, "unit": "%"}, {"measurement": "residual activity", "setting": "SRPK1 (human); compound 10.0 µM", "result": 73, "unit": "%"}, {"measurement": "residual activity", "setting": "[3]; compound 0.1 µM", "result": 117, "unit": "%"}, {"measurement": "residual activity", "setting": "[3]; compound 1.0 µM", "result": 107, "unit": "%"}, {"measurement": "residual activity", "setting": "[3]; compound 10.0 µM", "result": 129, "unit": "%"}, {"measurement": "residual activity", "setting": "TEK (human); compound 0.1 µM", "result": 95.2, "unit": "%"}, {"measurement": "residual activity", "setting": "TEK (human); compound 1.0 µM", "result": 91.2, "unit": "%"}, {"measurement": "residual activity", "setting": "TEK (human); compound 10.0 µM", "result": 60.4, "unit": "%"}]}]}
